Reference: publication PMC8048308, “Lysophosphatidic acid (LPA)-antibody (504B3) engagement detected by interferometry identifies off-target binding” (Lipids in Health and Disease, 2021)
“And” between values parts separate entries of the source, which are not always exact repeats. Equal values may be shown once.

Key:
LPA1 = molecular target: LPA1; parameters: method as in PMID 30463988, PMID 32513900; settings: CIR; cited from earlier work
anti-LPA antibody, 504B3 = experiment: free solution assay (FSA) measured in a compensated interferometric reader (CIR), equilibrium binding of lipids to antibody; parameters: species or system murine; settings: 5 μg/ml 504B3, 0–50 nM ligand; for Kd: read-out: KD from FSA ± SD (95% CI); for Bmax (95% CI): one-site specific binding fit of the ΔRI signal
Method: The FSA configuration required refractive index (RI)-matched sample and reference solutions (Fig. 2). The binding affinity determinations were done in an end-point assay format. A ligand dilution series (100, 20, 4, 0.8, 0.16, 0.032, and 0 nM) was prepared in 0.01% BSA / 0.002% EtOH/Phosphate buffered saline (PBS; ThermoFisher Scientific, Waltham, MA, USA) from an intermediate stock of 200 nM LPs in 0.01% BSA / 0.002% EtOH/PBS. Lipids were prepared in fatty acid-free BSA solutions to approximate the biological conditions of LPs. Then, each LP dilution was combined with PBS-only to create the reference solution, or 10 μg/ml of the 504B3 antibody in PBS to create the corresponding binding sample solution (Fig. 2). Sample and reference solutions were kept at RT in a shaker for approximately 1-h to reach equilibrium and then analyzed using the CIR. The final concentrations were 5 μg/ml of antibody and 0–50 nM of ligand in a final buffer composition of 0.005% BSA / 0.001% EtOH/PBS. The details of the interferometer instrumentation have been described elsewhere. Briefly, it consists of a diode laser, two mirrors, one glass capillary, and a CCD camera. Droplet trains of sample-reference pairs were maintained at a constant flow rate in the capillary using a droplet generator (Mitos Dropix; Dolomite Microfluidics, (Royston, North Hertfordshire, UK)) and a syringe pump (Harvard Apparatus, Holliston, MA, USA). Together, the interferometer, a syringe pump (at a flow rate of 10 μL/min), and a droplet generator comprise the CIR. The RI change between the binding sample and reference was measured as a positional shift in backscattered interference fringes produced from the interaction between an expanded beam profile of the laser and a capillary filled with sample-reference solutions [24]. The shift of the backscattered fringe patterns, which is equivalent to molecular binding, was quantified using fast Fourier transform of selected fringes captured in a CCD array. The assay was measured sequentially, as reference, then sample for each concentration, as described previously. The concentration dependent signal was plotted using a non-linear regression, one-site specific binding (Y=Bmax*X/(KD + X) + D; where D is the offset value) isotherm fit in GraphPad Prism Version 8 to determine the equilibrium dissociation constants (KDs). […] The sample and reference solutions were prepared by mixing a ligand dilution series (0–100 nM) with an equivalent volume of the 504B3 solution (sample; 10 μg/ml dissolved in PBS, pH 7.4) or PBS only (reference) (Fig. 2).

[1] = 0.005% BSA / 0.001% EtOH/PBS, about 1 h at RT, one-site specific binding fit

Row | KD from FSA ± SD (95% CI) (anti-LPA antibody, 504B3; [1]) | Kd (anti-LPA antibody, 504B3; [1]) | Bmax (95% CI) (anti-LPA antibody, 504B3) | specific binding signal (ΔRI) with 504B3 (anti-LPA antibody, 504B3) | specific binding signal (ΔRI) with 504B3 (anti-LPA antibody, 504B3; listed as S1P) | SMILES | native equilibrium binding (KD) to LPA1 (LPA1)
1 | weaker affinity | > 30 nM | 0.39 (undetermined^a) | – | – | CCCCCCCCCCCCCCCC(=O)OC[C@@H](O)COP(=O)(O)O [16:0 LPA, 1-palmitoyl-LPA (16:0)] | comparable binding
2 | – | 3.7 ± 2.8 nM | 0.17 (0.14 to 0.25) | – | – | CCCCCCCC/C=C\CCCCCCCC(=O)OC[C@@H](O)COP(=O)(O)O [18:1 LPA, 1-oleoyl-LPA (18:1)] | comparable binding
3 | – | – | – | No specific binding signal | no signal | CCCCCCCCCCCCC/C=C/[C@@H](O)[C@@H](N)COP(=O)(O)O [18:1 S1P, sphingosine 1-phosphate (d18:1)] | –

Row | SMILES | KD from FSA ± SD (95% CI) (anti-LPA antibody, 504B3; [1]) | Kd (anti-LPA antibody, 504B3; [1]) | Bmax (95% CI) (anti-LPA antibody, 504B3) | specific binding signal (ΔRI) with 504B3 (anti-LPA antibody, 504B3) | specific binding signal (ΔRI) with 504B3 (anti-LPA antibody, 504B3; listed as S1P) | native equilibrium binding (KD) to LPA1 (LPA1)
4 | CCCCCCCC/C=C\CCCCCCCC(=O)OC[C@@H](O)COP(=O)([O-])OCC[N+](C)(C)C [18:1 LPC, 1-oleoyl-lysophosphatidylcholine] | – | ~8.5 nM and 8.5 nM | 0.14 (0.12 to 0.16) | – | – | –
